From patent US20250108048A1, “STING AGONIST COMPOUNDS AND CONJUGATES” (SUTRO BIOPHARMA, INC., priority 2023, published 2025) come the findings set out here.

Common to all, as to format: cell-based
One assay concerns the target hSTING H232 (Homo sapiens, UniProt Q86WV6). Description: THP1-Dual KI-hSTING-H232 reporter assay (IRF pathway, secreted Lucia luciferase). Also noted: host or cells: THP1-Dual KI-hSTING-H232 (from THP1-Dual KO-STING). As to conditions: THP1-Dual KI-hSTING-H232 cells, 24 hours; read-out: Reporter assay EC50 (nM) THP-1-H232. The protocol: (§1) The activities of the STING agonists to activate human or mouse STING pathways were evaluated in THP-1-Dual™, THP1-Dual™ KI-hSTING-R232, THP1-Dual™ KI-hSTING-H232 Cells and THP1-Dual™ KI-mSTING Cells. THP-1-Dual™ cells contains hSTING-HAQ haplotype and can be used to evaluate the activity of STING agonists by monitoring the activation of NF-κB pathway and the […] (IFN regulatory factor) pathways. THP1-Dual™ KO-STING cells were generated from THP1-Dual™ cells by stable knockout of the endogenous HAQ STING gene. THP1-Dual™ KI-hSTING-R232 cells, THP1-Dual™ KI-hSTING-H232 cells and THP1-Dual™ KI-mSTING cells were generated by transfecting THP1-Dual™ KO-STING cells with hSTING-R232 or hSTING-H232 or mSTING. Stimulating these reporter cells with a STING agonist activates TRF pathway and induces the production of a secreted Lucia luciferase in the cell culture medium, which can be determined using QUANTI-Luc™ reagent.
(§2) THP-1-Dual™, THP1-Dual™ KI-hSTING-R232, THP1-Dual™ KI-hSTING-H232 and THP1-Dual™ KI-mSTING reporter cells were purchased from Invivogen and maintained in manufacture recommended culture medium with required supplemental antibiotics. On the day of assay, the cells were harvested with Accutase and counted by the Vi-CELL Cell Viability Analyzers. Cells were resuspended in HEK blue detection medium and a total of 10000 cells were seeded in each well of a 384-well flat bottom plate. […] After incubation at 37° C. in a CO2 incubator for 24 hours, 20 μl of cell culture medium per well was transferred into a 384-well white (opaque) plate. 50 μl of QUANTI-Luc™ assay solution was then added to each well and the plate was immediately transferred to an ENVISION® plate reader to measure luminescence (Perkin-Elmer). Relative luminescence readings were converted to fold change of signal using untreated cells as controls. Data was fitted with non-linear regression analysis, using log (agonist) vs. response, variable slope, 4-parameter fit equation using GraphPad Prism. Data was expressed as fold change in signal vs. dose of STING agonist in nM with error bars indicating the Standard Deviation (SD) of the quadruplicates. There result was reported in Table 2 as EC50 (the midpoint of the curve, or concentration at which […] of the maximum effect was observed).

In the next assay the target is T1, mSTING (Mus musculus, UniProt Q3TBT3).
T1 sequence (Q3TBT3 1-378): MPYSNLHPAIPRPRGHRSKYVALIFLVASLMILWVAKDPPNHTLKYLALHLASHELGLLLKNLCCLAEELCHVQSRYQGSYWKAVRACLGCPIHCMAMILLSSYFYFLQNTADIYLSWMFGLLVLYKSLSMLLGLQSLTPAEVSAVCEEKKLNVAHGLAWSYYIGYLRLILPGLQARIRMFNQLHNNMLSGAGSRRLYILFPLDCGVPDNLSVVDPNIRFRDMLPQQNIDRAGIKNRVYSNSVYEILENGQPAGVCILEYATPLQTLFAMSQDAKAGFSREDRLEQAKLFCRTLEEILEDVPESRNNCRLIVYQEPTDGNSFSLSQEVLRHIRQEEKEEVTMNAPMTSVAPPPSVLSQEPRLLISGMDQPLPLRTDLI
Description: THP1-Dual KI-mSTING reporter assay. Also noted: host or cells: THP1-Dual KI-mSTING (from THP1-Dual KO-STING). The following applies: THP1-Dual KI-mSTING cells, 24 hours; read-out: Reporter assay EC50 (nM) THP-1 mSTING. On the procedure:
as §1
THP-1-Dual™, THP1-Dual™ KI-hSTING-R232, THP1-Dual™ KI-hSTING-H232 and THP1-Dual™ KI-mSTING reporter cells were purchased from Invivogen and maintained in manufacture recommended culture medium with required supplemental antibiotics. On the day of assay, the cells were harvested with Accutase and counted by the Vi-CELL Cell Viability Analyzers. Cells were resuspended in HEK blue detection medium and a total of 10000 cells were seeded in each well of a 384-well flat bottom plate. Serial dilutions of STING agonists free drugs (1:3 serial dilution starting from 5 uM) was added into treatment wells. After incubation at 37° C. in a CO2 incubator for 24 hours, 20 μl of cell culture medium per well was transferred into a 384-well white (opaque) plate. 50 μl of QUANTI-Luc™ assay solution was then added to each well and the plate was immediately transferred to an ENVISION® plate reader to measure luminescence (Perkin-Elmer). Relative luminescence readings were converted to fold change of signal using untreated cells as controls. Data was fitted with non-linear regression analysis, using log (agonist) vs. response, variable slope, 4-parameter fit equation using GraphPad Prism. Data was expressed as fold change in signal vs. dose of STING agonist in nM with error bars indicating the Standard Deviation (SD) of the quadruplicates. There result was reported in Table 2 as EC50 (the midpoint of the curve, or concentration at which […] of the maximum effect was observed).

Another assay has as its target T2, hSTING-HAQ haplotype (Homo sapiens, UniProt Q86WV6, G230A/H232R/R293Q/R71H).
T2 construct: host or cells: THP-1-Dual
Put plainly: THP-1-Dual reporter assay (endogenous hSTING-HAQ). The following applies: THP-1-Dual cells (hSTING-HAQ), 24 hours. On the procedure:
as §1, §2

The target in a further assay is T3, hSTING-R232 (Homo sapiens, UniProt Q86WV6, H232R).
T3 construct: host or cells: THP1-Dual KI-hSTING-R232 (from THP1-Dual KO-STING)
T3 sequence (Q86WV6 whole entry H232R): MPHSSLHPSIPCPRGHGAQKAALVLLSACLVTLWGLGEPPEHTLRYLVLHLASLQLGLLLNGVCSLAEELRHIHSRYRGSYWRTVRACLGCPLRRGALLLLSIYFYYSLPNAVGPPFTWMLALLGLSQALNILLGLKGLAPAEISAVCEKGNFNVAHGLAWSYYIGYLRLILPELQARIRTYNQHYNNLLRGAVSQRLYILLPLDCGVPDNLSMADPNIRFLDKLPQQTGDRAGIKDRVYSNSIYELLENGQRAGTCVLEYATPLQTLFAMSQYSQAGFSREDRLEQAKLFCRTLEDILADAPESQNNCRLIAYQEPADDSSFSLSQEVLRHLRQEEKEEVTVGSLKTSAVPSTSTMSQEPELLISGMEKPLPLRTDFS
Put plainly: THP1-Dual KI-hSTING-R232 reporter assay (IRF pathway, secreted Lucia luciferase). As to conditions: THP1-Dual KI-hSTING-R232 cells, 24 hours; read-out: Reporter assay EC50 (nM) THP-1-R232. The protocol: as §1, §2

Chain of hSTING H232 (Q86WV6 whole entry): as the sequence (Q86WV6 whole entry H232R) above, with R232H counted along it
T2 sequence (Q86WV6 whole entry R71H/G230A/H232R/R293Q): as the sequence (Q86WV6 whole entry H232R) above, with R71H, G230A, R293Q counted along it

As to `CCc1nc(C)sc1C(=O)Nc1nc2cc(C(N)=O)cc(OC)c2n1C/C=C/Cn1c(NC(=O)c2sc(C)nc2CC)nc2cc(C(N)=O)cc(OCCCN3CCC(c4nnc5n4CCNC5)CC3)c21` [Compound 44], the EC50 on hSTING H232, at mSTING, at hSTING-HAQ haplotype and on hSTING-R232 was ≤ 50 nM throughout.

As for `CCc1nc(C)oc1C(=O)Nc1nc2cc(C(N)=O)cc(OCCCN3CC4(C3)CN(C(=O)[C@H](CC(C)C)NC)CCO4)c2n1C/C=C/Cn1c(NC(=O)c2cc(C)nn2CC)nc2cc(C(N)=O)cc(OC)c21` [Compound 19], the EC50 on hSTING H232 is 50 to 150 nM; on mSTING, ≤ 50 nM; at hSTING-HAQ haplotype it was 50 to 150 nM; on hSTING-R232 it was ≤ 50 nM.

With `CCc1nc(C)oc1C(=O)Nc1nc2cc(C(N)=O)cc3c2n1C/C=C/Cn1c(NC(=O)c2cc(C)nn2CC)nc2cc(C(N)=O)cc(c21)OCC1(CNC1)CO3` [Compound 26, (3E)-7-[(4-ethyl-2-methyl-oxazole-5-carbonyl)amino]-25-[(2-ethyl-5-methyl-pyrazole-3-carbonyl)amino]spiro[14,18-dioxa-1,6,8,24-tetrazapentacyclo[17.6.1.16,9.023,26.013,27]heptacosa-3,7,9,11,13 (27), 19 (26), 20,22,24-nonaene-16,3′-azetidine]-11,21-dicarboxamide], the concentration for a half-maximal effect (EC50) is ≤ 50 nM on hSTING H232, 50 to 150 nM on mSTING, > 150 nM on hSTING-HAQ haplotype and ≤ 50 nM on hSTING-R232.

On to `CCc1nc(C)oc1C(=O)Nc1nc2cc(C(N)=O)cc(OCCCN3CC4(CNCCO4)C3)c2n1C/C=C/Cn1c(NC(=O)c2cc(C)nn2CC)nc2cc(C(N)=O)cnc21` [Compound 23], for which the EC50 on hSTING H232 was ≤ 50 nM; at mSTING, 50 to 150 nM; at hSTING-HAQ haplotype, 50 to 150 nM; at hSTING-R232, ≤ 50 nM.

Consider `CCc1nc(C)oc1C(=O)Nc1nc2cc(C(N)=O)cc(OCCCN3CC4(C3)CN(C(=O)[C@H](N)CC(C)C)CCO4)c2n1C/C=C/Cn1c(NC(=O)c2cc(C)nn2CC)nc2cc(C(N)=O)cc(OC)c21` [Compound 20], for which the EC50 is 50 to 150 nM on hSTING H232, ≤ 50 nM on mSTING, 50 to 150 nM at hSTING-HAQ haplotype and ≤ 50 nM at hSTING-R232.

As to `CCn1nc(C)cc1C(=O)Nc1nc2cc(C(N)=O)cc(OC)c2n1C/C=C/Cn1c(NC(=O)c2cn(C)nc2CN)nc2cc(C(N)=O)cc(OCCCN3CC4(CCCCO4)C3)c21` [Compound 63, (E)-7-(3-(5-oxa-2-azaspiro[3.5]nonan-2-yl)propoxy)-2-(3-(aminomethyl)-1-methyl-1H-pyrazole-4-carboxamido)-1-(4-(5-carbamoyl-2-(1-ethyl-3-methyl-1H-pyrazole-5-carboxamido)-7-methoxy-1H-benzo[d]imidazol-1-yl)but-2-en-1-yl)-1H-benzo[d]imidazole-5-carboxamide], the EC50 on hSTING H232, on mSTING, on hSTING-HAQ haplotype and at hSTING-R232 was > 150 nM in each case.

With `CCn1nc(C)cc1C(=O)Nc1nc2cc(C(N)=O)cc(OC)c2n1C/C=C/Cn1c(NC(=O)c2cc(C)nn2C)nc2cc(C(N)=O)cc(OCCCN3CC4(CNCCO4)C3)c21` [Compound 13], the EC50 at hSTING H232, at mSTING, at hSTING-HAQ haplotype and at hSTING-R232 was ≤ 50 nM each time.

Consider `CCn1nc(C)cc1C(=O)Nc1nc2cc(C(N)=O)cc(OC)c2n1C/C=C/Cn1c(NC(=O)c2oc(C)nc2C)nc2cc(C(N)=O)cc(OCCCN3CC4(CNCCO4)C3)c21` [Compound 11], for which the half-maximal effective concentration (EC50) at hSTING H232 was ≤ 50 nM; at mSTING, ≤ 50 nM; on hSTING-HAQ haplotype, > 150 nM; at hSTING-R232, ≤ 50 nM.

Turning to `CCn1nc(C)cc1C(=O)Nc1nc2cc(C(N)=O)cc(OC)c2n1C/C=C/Cn1c(NC(=O)c2ccnn2CC)nc2cc(C(N)=O)cc(OCCCN3CC4(CNCCO4)C3)c21` [Compound 14], the concentration giving a half-maximal response (EC50) on hSTING H232, on mSTING, at hSTING-HAQ haplotype and at hSTING-R232 was ≤ 50 nM each time.

Consider `CCn1nc(C)cc1C(=O)Nc1nc2cc(C(N)=O)cc(OC)c2n1C/C=C/Cn1c(NC(=O)Cc2cc(C)n(C)n2)nc2cc(C(N)=O)cc(OCCCN3CC4(CNCCO4)C3)c21` [Compound 9], for which the 50% effective concentration (EC50) on hSTING H232, at mSTING, at hSTING-HAQ haplotype and at hSTING-R232 was > 150 nM in each case.

For the compound `CCc1nc(C)oc1C(=O)Nc1nc2cc(C(N)=O)cc(OCCCN3CC4(CNCCO4)C3)c2n1C/C=C/Cn1c(NC(=O)c2cc(C)nn2CC)nc2cc(C(N)=O)cc(OC)c21` [Compound 10], the EC50 at hSTING H232, on mSTING, at hSTING-HAQ haplotype and on hSTING-R232 was ≤ 50 nM in each case.

For the compound `CCn1nc(C)cc1C(=O)Nc1nc2cc(C(N)=O)cc(OC)c2n1C/C=C/Cn1c(NC(=O)c2cn(C)nc2C2CNC2)nc2cc(C(N)=O)cc(OCCCN3CC4(CCCCO4)C3)c21` [Compound 62], the EC50 at hSTING H232, on mSTING, at hSTING-HAQ haplotype and at hSTING-R232 was > 150 nM in each case.

For `CCn1nc(C)cc1C(=O)Nc1nc2cc(C(N)=O)cc(OC)c2n1C/C=C/Cn1c(NC(=O)Cc2cnc(C)o2)nc2cc(C(N)=O)cc(OCCCN3CC4(CNCCO4)C3)c21` [Compound 7], the EC50 on hSTING H232, at mSTING, at hSTING-HAQ haplotype and at hSTING-R232 was > 150 nM in each case.

On to `CCn1nc(C)cc1C(=O)Nc1nc2cc(C(N)=O)cc(OC)c2n1C/C=C/Cn1c(NC(=O)C23CCC(C)(CC2)CC3)nc2cc(C(N)=O)cc(OCCCN3CC4(CNCCO4)C3)c21` [Compound 12], for which the EC50 at hSTING H232, at mSTING, at hSTING-HAQ haplotype and at hSTING-R232 was > 150 nM in each case.

As to `CCc1cc(C(=O)Nc2nc3cc(C(N)=O)cc(OCCCN4CC5(CNCCO5)C4)c3n2C/C=C/Cn2c(NC(=O)c3cc(C)nn3CC)nc3cc(C(N)=O)cc(OC)c32)n(C)n1` [Compound 15], the EC50 on hSTING H232, on mSTING, at hSTING-HAQ haplotype and on hSTING-R232 was > 150 nM in each case.
